In data set [1] the test system is RhoA. Put plainly: RhoA2G FRET sensor imaging in hippocampal neurons. The following applies: AP5 1μM + ADDLs; dendritic shaft; Figure S4E.
In data set [2] the test system is calcium signaling in hippocampal neurons. As to the kind of experiment: RCaMP calcium sensor imaging in hippocampal neurons. The following applies: for baseline calcium in dendrites, VGCC blockers: all 1μM, sustained (1 min mean) ΔF/F of shaft ROIs, n=3–11 neurons, p<0.03 vs control imaging period; for inhibition of dendritic calcium in neurons lacking T-type channels: shCaV3.1-3.3, Figure S5E.

The test system of data set [3] is T-type calcium channels. Put plainly: whole-cell T-type. The following applies: for T-type current inhibition, blockers: 1μM; for LV currents in neurons lacking all T-type channels: shCaV3.1-3.3, Figure S6F. Type of data set: cell-based, Long-Evans rat.
Data set [4] has as its system hippocampal neurons. The following applies: ref Wills et al., 2012; cited from earlier work.
Data set [5] deals with CA1 pyramidal neurons (Schaffer collateral-CA1 synapses).
The test system of data set [6] is LTP. The following applies: ref Moriguchi et al., 20012; cited from earlier work.
Data set [7] has as its system T-type channel. The following applies: ref Yamamoto et al, 2013; cited from earlier work.
Data set [8] has as its system T-type calcium channels. As to the kind of experiment: T-type currents in acute hippocampal slices. The following applies: NNC added to slice; Figure S8E. Further details: species or system mouse.
Data set [9] relates to hippocampal neurons. As to the kind of experiment: cell health and dendritic spine integrity under blockers. Type of data set: cell-based, Long-Evans rat. The following applies: hippocampal slice cultures; data not shown.
[10] abbreviates: AP5 1μM + ADDLs, dendritic shaft, Figure S4E.

The values below come from publication PMC6101033 (Neuron, 2017).

Turning to `NC(CCCP(=O)(O)O)C(=O)O` (stereo not drawn) [AP5], the “long-term RhoA activation by ADDLs under NMDAR inhibition” value in [1] is “long-term activation of RhoA and inhibition of calcium signaling is preserved”. Also, in data set [2] (setting [10]), the “acute calcium response to ADDLs under NMDAR inhibition” value was “acute calcium responses to ADDLs in the dendritic shaft of neurons are lost”; the “long-term calcium inhibition by ADDLs under NMDAR inhibition” value is “long-term activation of RhoA and inhibition of calcium signaling is preserved”.
Turning to `CC1(C)C[C@@H](CN2CCC(F)(CNC(=O)c3cc(Cl)cc(Cl)c3)CC2)CCO1` [TTA-P2], in data set [3], the “T-type current inhibition, blockers” value was “ADDL’s inhibition of T-type currents was comparable to T-type channel blockers NNC and TTA-P2”; the “LV currents in neurons lacking all T-type channels” value is “neither NNC or TTAP2 inhibit LV currents in neurons lacking all T-type channels”. For the same compound, in [2], the “baseline calcium in dendrites, VGCC blockers” value is on record as “elicited the largest reductions in baseline calcium in dendrites”; the “inhibition of dendritic calcium in neurons lacking T-type channels” value was “eliminates NNC and TTA-P2’s inhibition of calcium signaling in dendrites”.
With `C[C@@H](N)[C@H]1CC[C@H](C(=O)Nc2ccncc2)CC1` [Y27632], the “reversal of ADDL block of T-type currents” value in [3] (Y27632 1μM + ADDLs) is “reverses ADDL’s block of T-type channel currents”. Besides, the “neuron health, Y27632” value in data set [4] is “no deleterious effects on neuron health”. Moreover, in data set [2] (Y27632 1μM, 10 minutes, then ADDLs 150nM, n=3 neurons), the “ADDL inhibition of dendritic calcium under ROCK inhibition” value is “ADDL-mediated inhibition of dendritic calcium signaling in neurons is lost”. Moreover, the “RCaMP activity in the dendritic shaft, ROCK inhibitor” value in [2] (Y27632 1μM, 1 min mean ΔF/F, shaft ROIs) was “marked rise in RCaMP activity in the dendritic shaft of neurons”. Besides, the “ADDL inhibition of dendritic calcium after washout of Y27632” value in [2] (washout 10 minutes, then ADDLs 150nM, n=3 neurons, p<0.001 vs CON) is on record as “following a washout of Y27632, ADDL’s inhibition of dendritic calcium signaling is restored”. The “LTP, reversal of ADDL inhibition” value in [5] (Y27632 1μM preincubation + ADDLs 150 nM, fEPSC 55–60 min, p<0.05 vs ADDL) is “reverses ADDL’s inhibition of LTP”. Also, the “LTP, ROCK inhibitor alone” value in [5] (Y27632 1μM, control neurons, no ADDLs, p<0.03 vs CON (WT)) is recorded as “blocks LTP”.
On to `O=C1N=C2C=CC=CN2C12Cc1ccccc1C2` [STK101, spiro[imidazo-[1,2-a]pyridine-3,2-indan]-2(3H)-one], for which the LTP result in [6] is on record as “enhances LTP”. The T-type channel agonism result in [7] is reported as “T-type channel agonist”.
With `COCCOC(=O)C1=C(C)NC(C)=C(C(=O)OC(C)C)C1c1cccc([N+](=O)[O-])c1` (stereo not drawn) [nimodipine], the “LTP, L-type channel blocker” value in data set [5] (Nimodipine 1μM, 6 months mice, fEPSC 55–60 min) is listed as “no effect on LTP”.
Turning to lysophosphatidic acid [LPA], the “T-type currents, RhoA activator” value in [3] (LPA 1μM vs ADDLs 150nM, 14–18 DIV) was “inhibits T-type currents with a magnitude comparable to that of ADDLs”.
For `CC(C)[C@H]1c2ccc(F)cc2CC[C@@]1(CCN(C)CCCc1nc2ccccc2[nH]1)OC(=O)C1CC1` [NNC], in data set [3], the “T-type current inhibition, blockers” value was “ADDL’s inhibition of T-type currents was comparable to T-type channel blockers NNC and TTA-P2”; the “LV currents in neurons lacking all T-type channels” value is reported as “neither NNC or TTAP2 inhibit LV currents in neurons lacking all T-type channels”. Moreover, the “LV currents in acute hippocampal slice” value in data set [8] is recorded as “inhibits LV currents in our acute hippocampal slice recording”. Also, in data set [9], the “effects on dendritic spines, NNC” value is “no pathological effects on dendritic spines in hippocampal slice cultures”. Besides, in data set [2], the “baseline calcium in dendrites, VGCC blockers” value was “elicited the largest reductions in baseline calcium in dendrites”; the “inhibition of dendritic calcium in neurons lacking T-type channels” value is “eliminates NNC and TTA-P2’s inhibition of calcium signaling in dendrites”. Besides, the “LTP rescue under ADDLs by ROCK inhibition or NgR loss, effect of NNC” value in data set [5] (NNC 10μM + ADDL + Y27632 (10μM) or NgR^NNN, p<0.04) is recorded as “reverses the capacity of ROCK inhibition (Y27632) or NgR loss (NgR^NNN) to rescue neurons from ADDL-mediated LTP reduction”. Further, the “LTP, NNC combined with ADDLs” value in [5] (NNC 10μM + ADDL, fEPSC 55–60 min, n=6–8 animals/slices per condition) is listed as “no greater inhibition of LTP than either ADDL or NNC alone”. In addition, the “LTP, T-type channel blocker” value in [5] (NNC 10μM, 6 months mice, fEPSC 55–60 min, p<0.001 vs CON) was “inhibits LTP in acute hippocampal slices”.
